From patent publication US5270334A, “4-methoxy-5-methyl-pyran-3-ol natural products and derivatives thereof” (E. R. Squibb & Sons, Inc., priority 1992, dated 1993)
≈ marks a conversion by molar mass, not a printed value.

How the values were obtained:
[1] = tested on: Candida albicans; assay: Anticandidal activity of lanomycin, agar dilution method (Table 5); format: cell-based; details: for MIC: 10^4 cfu
Procedure: (§1) MICs were determined by the agar dilution method using a medium composed of tryptone (5 g), malt extract (3 g), glucose (10 g) and yeast extract (3 g) in 1 L distiled water; 10^4 cfu of the test organism was applied to the agar.

[2] = tested on: Candida glabrata; assay: as above; format: cell-based; details: for MIC: Nakaseomyces glabratus, 10^4 cfu
Procedure: as §1

[3] = tested on: Candida guillermondii; assay: as above; format: cell-based; details: for MIC: 10^4 cfu
Procedure: as §1

[4] = tested on: Candida krusei; assay: as above; format: cell-based; details: for MIC: Pichia kudriavzevii, 10^4 cfu
Procedure: as §1

[5] = tested on: Candida parakrusei; assay: as above; format: cell-based; details: for MIC: 10^4 cfu
Procedure: as §1

[6] = tested on: Candida pseudotropicalis; assay: as above; format: cell-based; details: Kluyveromyces marxianus, SC11241; Candida pseudotropicalis SC 11241; 10^4 cfu
Procedure: as §1

[7] = tested on: Candida stellatoidea; assay: as above; format: cell-based; details: Candida albicans, SC2211; Candida stellatoidea SC 2211; 10^4 cfu
Procedure: as §1

[8] = tested on: Candida tropicalis; assay: as above; format: cell-based; details: 10^4 cfu
Procedure: as §1

[9] = tested on: Gram negative bacteria; assay: antibacterial activity of lanomycin; format: cell-based; details: in words, Table 4
Procedure: (§2) *Minimal inhibitory concentrations were determined by agar dilution assay

[10] = tested on: Gram positive bacteria; assay: antibacterial activity of lanomycin; format: cell-based; details: in words, Table 4
Procedure: as §2

[11] = molecular target: T1, lanosterol demethylase (Candida albicans, UniProt P10613); assay: inhibition of lanosterol demethylase, spectrophotometric carbon monoxide binding assay; details: Candida albicans SGY677; read-out: concentration which gives 50% inhibition of carbon monoxide binding
T1 construct: endogenous in cells; host or cells: Candida albicans SGY677
T1 sequence (P10613 whole entry): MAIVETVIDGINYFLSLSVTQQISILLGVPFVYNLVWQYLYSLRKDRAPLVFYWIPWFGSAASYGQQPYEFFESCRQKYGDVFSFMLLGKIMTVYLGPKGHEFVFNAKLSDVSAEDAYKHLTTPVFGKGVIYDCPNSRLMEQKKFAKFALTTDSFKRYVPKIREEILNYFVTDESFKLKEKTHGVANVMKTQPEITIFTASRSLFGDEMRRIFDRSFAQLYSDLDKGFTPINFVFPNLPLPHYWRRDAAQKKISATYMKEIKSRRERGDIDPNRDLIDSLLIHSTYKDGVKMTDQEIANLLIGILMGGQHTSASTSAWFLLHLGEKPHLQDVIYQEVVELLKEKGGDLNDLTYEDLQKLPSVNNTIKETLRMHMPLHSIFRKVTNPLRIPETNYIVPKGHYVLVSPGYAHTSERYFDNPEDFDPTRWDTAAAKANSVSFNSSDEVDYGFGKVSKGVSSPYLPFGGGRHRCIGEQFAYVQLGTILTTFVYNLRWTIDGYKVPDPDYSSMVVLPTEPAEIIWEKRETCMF
Procedure: The inhibition of lanosterol demethylase was determined by two methods: the spectrophotometric carbon monoxide binding assay of Omura and Sato (J. Biol. Chem. 239:2370-2378, 1964) and by a radiolabeled metabolic assay.
Cells of Candida albicans, SGY677, were grown overnight without shaking at 30° C. in a medium consisting of yeast extract 1%, peptone 2%, glucose 2% and distilled water. Cells were harvested by centrifugation and resuspended in 0.65M mannitol to an optical density at 600 nm of 2.5. At this density 1 ml of cells was equal to 6.7 mg constant dry weight (105° C. for 18 hours).
Scopularin and its alcohol derivative of Example 4 were added to the enzyme and the inhibition of carbon monoxide binding determined over a range of inhibitor concentrations.

`C/C=C/C=C/C=C(\C)[C@H]1OC[C@@H](C)[C@@H](OC)[C@@H]1OC(=O)CN` (relative stereo) [Lanomycin] gave an MIC ([1]; SC5314, Candida albicans SC 5314) of over 100 mg/L, an MIC ([1]; SC9177, Candida albicans SC 9177) of 100 mg/L (≈ 323 µM) and an MIC ([1]; SC9721, Candida albicans SC 9721) of 100 mg/L (≈ 323 µM). It also gave an MIC ([1]; SC10102, Candida albicans SC 10102) of over 100 mg/L, an MIC ([1]; SC10580, Candida albicans SC 10580) of over 100 mg/L and an MIC ([1]; SC10584, Candida albicans SC 10584) of 50 mg/L (≈ 162 µM). It also gave an MIC ([1]; SC10585, Candida albicans SC 10585) of 100 mg/L (≈ 323 µM), an MIC ([1]; SC11422, Candida albicans SC 11422) of 100 mg/L (≈ 323 µM) and an MIC ([1]; SC12734, Candida albicans SC 12734) of over 100 mg/L. The MIC ([1]; SC14021, Candida albicans SC 14021) was over 100 mg/L, the “activity against the C. albicans species tested” value ([1]; in words, Table 5) was “active” and the MIC ([2]; SC9342, Candida glabrata SC 9342) was 0.8 mg/L (≈ 2.59 µM). The MIC ([2]; SC11267, Candida glabrata SC 11267) was 25 mg/L (≈ 80.8 µM), the “activity against certain strains of C. glabrata” value ([2]; in words, Table 5) was “good activity” and the MIC ([3]; SC2210, Candida guillermondii SC 2210) was 50 mg/L (≈ 162 µM). For the same compound, the MIC ([3]; SC2996, Candida guillermondii SC 2996) was 1.6 mg/L (≈ 5.17 µM), the “activity against certain strains of C. guillermondii” value ([3]; in words, Table 5) was “good activity” and the MIC ([4]; SC2967, Candida krusei SC 2967) was 6.3 mg/L (≈ 20.4 µM). The MIC ([4]; SC2968, Candida krusei SC 2968) was 12.5 mg/L (≈ 40.4 µM), the MIC ([4]; SC2969, Candida krusei SC 2969) was 25 mg/L (≈ 80.8 µM) and the “activity against certain strains of C. krusei” value ([4]; in words, Table 5) was “good activity”. For the same compound, the MIC ([5]; SC2621, Candida parakrusei SC 2621) was 12.5 mg/L (≈ 40.4 µM), the MIC ([5]; SC2966, Candida parakrusei SC 2966) was 25 mg/L (≈ 80.8 µM) and the “activity against certain strains of C. parakrusei” value ([5]; in words, Table 5) was “good activity”. It also gave an MIC [6] of 50 mg/L (≈ 162 µM), an MIC [7] of 50 mg/L (≈ 162 µM) and an MIC ([8]; SC2963, Candida tropicalis SC 2963) of 25 mg/L (≈ 80.8 µM). The MIC ([8]; SC8159, Candida tropicalis SC 8159) was over 100 mg/L, the MIC ([8]; SC9861, Candida tropicalis SC 9861) was 100 mg/L (≈ 323 µM) and the MIC ([8]; SC10597, Candida tropicalis SC 10597) was 100 mg/L (≈ 323 µM). For the same compound, the “activity against Gram negative bacteria” value [9] was “not active” and the “activity against Gram positive bacteria” value [10] was “not active”.

`CCC/C=C/C=C/C=C(\C)[C@H]1OC[C@@H](C)[C@@H](OC)[C@@H]1OC(=O)CN` (relative stereo) [Scopularin, (2α, 3β, 4α, 5α)-Tetrahydro-4-methoxy-5-methyl-2-(1-methyl-1,3,5-nonatrienyl)-2H-pyran-3-ol, aminoacetate ester] gave an IC50 [11] of 36 µM.
